In data set [1] the target is T1, NUDT5 (Homo sapiens, UniProt Q9UKK9). Briefly: NUDT5 degradation by Western blot in HAP-1 cells. On the set-up: endogenous in cells. Format: cell-based. As for the experimental part:
(§1) For Western blots, proteins were separated on polyacrylamide gels with SDS running buffer (50 mM Tris, 380 mM Glycine, 7 mM SDS) and transferred to PVDF membranes. All membranes were then blocked with blocking buffer (5% w/v milk powder, BioRad) in TBST (50 mM Tris (tris(hydroxymethylaminomethane), 150 mM NaCl, 0.05% (v/v) Tween 20, adjusted to pH 7.6) Proteins were probed with antibodies against phospho-AMPK (50081S, 1:2000, Cell Signaling Technologies), AMPK (5832S, 1:2000, Cell Signaling Technologies), PML (ab179466, 1:1000, abeam), PARP8 (NBP213733, 1:1000, Novus Biologicals), ATF2/7 (82870, 1:1000, Cell Signaling Technologies), alpha-Tubulin (ab7291, 1:1000, Abeam), phospho-UBTF (ab182583, 1:1000, abeam), UBTF (HPA006385, 1:1000, Sigma), RBM38 (AV40862, 1:1000, Sigma), or NUDT5 (ab129172, 1:1000, abeam), detected by HRP (horse-radish peroxidase) conjugated donkey anti-rabbit IgG antibody (Pierce) or donkey anti-mouse antibody IgG antibody (Pierce) and visualized with Clarity ECL Western Blotting substrate (BioRad), according to provided protocol.
Background: A western blot detects proteins with antibodies after separation by electrophoresis.

The target in the next data set is T2, luciferase-tagged NUDT5 (Homo sapiens, UniProt Q9UKK9).
T2 construct: expressed in transfected cells; host or cells: HEK293T
Briefly: NanoBRET target engagement assay. Format: cell-based. As to conditions: live cells, 2 h. As to the method: For NanoBRET target engagement assay, intracellular TE Nano-Glo substrate/inhibitor (N2161, Promega) was used according to the manufacturer's instruction. In brief, 200,000 HEK293T cells/ml was seeded in a T-75 flask. N-terminal NanoLuciferse NUDT5 was reverse transfected into the cells using Fugene HD transfection reagent (E2312, Promega). After 24 h the transfected HEK293 (200,000 cells/ml) were replated onto a 384-well plate containing compounds. 2.5 nM NU008116a was used as the final tracer concentration. After 2 h, NanoLuc substrate and inhibitor was added into each well and the signals were measured by PHERAstar Microplate Reader.
Compounds were dispensed in the 384-well plates by using Echo Acoustic Dispenser.

In data set [2] the target is T1, NUDT5. Put plainly: CRBN knock-out experiment, NUDT5 degradation. Format: cell-based. On the set-up: endogenous in cells; host or cells: HEK293 (also CRBN knock-out HEK293 for A13). The following applies: CRBN knock-out HEK293 cells, 20 h.
A further data set concerns HAP1 cells. Put plainly: untargeted global proteomics. As to conditions: 100 nM, 6 and 24 h. Format: cell-based, human. As to the method:
Proteomics samples were digested with trypsin using STrap columns following the manufacturer's protocol (C02-micro, ProtiFi). For untargeted global proteomics HAP1 cells were treated with DMSO or 100 nM dNUDT5 for 6 h or 24 h. Then, the cell pellets were collected and lysed in 5% SDS containing 1 μL/mL benzonase (E1014, Millipore) and subsequent short sonication to shear genomic DNA (1× 2 s pulse, 20% amplitude, microtip, Sonics Vibra Cell). 50 μg protein from the total cell lysate or 80% of the elution fraction of the chemical pulldown were first reduced by 20 mM dithiothreitol (M02712, Fluorochem), and alkylated by 40 mM iodoacetamide (I1149, Sigma). Phosphoric acid and S-Trap protein binding buffer were added into the sample lysates. Then, the SDS lysate/S-Trap buffer were loaded into a S-Trap column (C02-micro-80, ProtiFi). 1 μg of trypsin (V5111, Promega) was used to digest each sample at 37° C. for 20 h. The samples were then eluted and dried by vacuum centrifugation. […]
Raw data were searched against the human database (UP000005640, downloaded 08/21) using DIA-NN (Demichev et al. 2020 Nature Methods) by enabling FASTA digest for library free search and Deep learning-based spectra, RTs and IMs prediction. […] The protein groups matrix was further analysed using Perseus (1.6.2.1) or R studio (4.1.1). […] Proteins were removed if detected less than 2 times in each group. […]

In data set [3] the target is T1, NUDT5. Briefly: NUDT5 degradation by Western blot in HEK293 cells. Format: cell-based. On the set-up: endogenous in cells; host or cells: HEK293 (also CRBN knock-out HEK293 for A13). As to the method:
as §1

In a further data set the test system is WT HAP1 cells. Put plainly: growth of WT HAP1 cells. The following applies: 72 h. Format: cell-based. As for the experimental part:
HAP1 (KBM7-derived, Horizon Discovery, C859), and HAP1 MTHFD1^KO, MTHFD1^K56R, and MTHFD1^K386E cell lines were cultured in Iscove's Modified Dulbecco's Medium (IMDM, Sigma), supplemented with 10% Fetal Bovine Serum (FBS, Sigma) and 1% Penicillin/Streptomycin (P/S, Sigma).
MTHFD1^KO cells in dialyzed FBS media were treated with a single nucleotide or folic acid metabolite for 72 hours. Cells were then stained with Hoechst, imaged, and counted using an Operetta (Perkin Elmer). For the AMPK activator studies, cells were stained with Hoechst, imaged, and counted using an Opera (Perkin Elmer). Similarly, MTHFD1^K56R cells in dialyzed FBS media were treated with adenosine for 72 hours. Cells were then stained with Hoechst, imaged, and counted using an Operetta (Perkin Elmer).

For orientation: DC50 means the concentration at which degradation of the target reaches its halfway point. Read a low DC50 as a more potent degrader. Take `Cn1c(=O)c2c(nc(N3CCN(C(=O)N4CCC(CN5CCN(c6ccc7c(c6)C(=O)N(C6CCC(=O)NC6=O)C7=O)CC5)CC4)CC3)n2Cc2nnc(-c3ccc(Cl)c(Cl)c3)o2)n(C)c1=O` (stereo not drawn) [dNUDT5, 7-((5-(3,4-dichlorophenyl)-1,3,4-oxadiazol-2-yl)methyl)-8-(4-(4-((4-(2-(2,6-dioxopiperidin-3-yl)-1,3-dioxoisoindolin-5-yl)piperazin-1-yl)methyl)piperidine-1-carbonyl)piperazin-l-yl)-1,3-dimethyl-3,7-dihydro-1H-purine-2,6-dione]: the DC50 was 0.3 nM on NUDT5 [1] and 0.5 nM on NUDT5 [3] (HEK293 cells). Moreover, the “NUDT5 engagement / recruitment” value at luciferase-tagged NUDT5 is “engaged their cognate target NUDT5 in live cells”. Moreover, at NUDT5 [2], the “dependence of degradation on E3 ligase” value is recorded as “E3-ligase-dependant”. In the data set on HAP1 cells, the “proteome-wide specificity of degradation” value is given as “highly specific for NUDT5 with no other protein being degraded”. Besides, the “NUDT5 degradation at 100 nM, 20 h (%)” value at NUDT5 [3] (100 nM, 20 h) is 96%. In addition, on NUDT5 [3] (HEK293 and HAP-1 cells), the “concentration beyond which degradation efficiency declines (hook effect)” value is recorded as more than 300 nM. Moreover, the “dependence of NUDT5 degradation (rescue experiments)” value at NUDT5 [3] (competition with TH5427, MLN4924, MG132, HEK293 cells) was “E3 ligase- and proteasome-dependent”. For the same molecule, the “effect on viability of WT cells” value in the data set on WT HAP1 cells is listed as “did not affect the viability of WT cells”.

For the origin of these results see patent US20260200923A1, “HETEROCYCLIC COMPOUNDS TARGETING THE NUDT5 PROTEIN” (Oxford University Innovation Limited, priority 2022, published 2026).
